This assay has as its system MX-1 breast xenograft, intrarenal, nude mice, tumor weight. Kind of assay: NCI In Vivo Anticancer Drug Screen. Data for tumor model Human Mammary Carcinoma MX-1 Xenograft (intrarenal inoculation) in NU/NU BALB/C (nude) mice. The note with it: endpoint: mean tumor weight change, higher = larger tumour. In a few lines:
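Efficacy in vivo: tumor measurement or survival of treated animals divided by that of vehicle-dosed controls.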
In general terms: In xenograft studies the graft and the host belong to different species.

The mark [1] stands for this setting: dose: 150.0 mg/kg/injection, schedule: Q04DX003 (ip), vehicle: saline with Tween-80.

Results filed as inconclusive are left out.

For the molecule `C=CCCC(=O)CCCC(=O)O[C@@H]1[C@@H]2[C@H](CC1(C)C)[C@H](O)[C@@]13O[C@@H]1[C@H](O)[C@@]1(CO1)[C@@]23C`, the T/C (dose: 0.4 mg/kg/injection, schedule: Q04DX003 (ip), vehicle: Klucel (hydroxypropylcellulose) (HPC)) is 79 % of control; the T/C (dose: 0.8 mg/kg/injection, schedule: Q04DX003 (ip), vehicle: Klucel (hydroxypropylcellulose) (HPC)) was 82 % of control; the T/C (dose: 1.6 mg/kg/injection, schedule: Q04DX003 (ip), vehicle: Klucel (hydroxypropylcellulose) (HPC)) was 92 % of control; the T/C (dose: 3.2 mg/kg/injection, schedule: Q04DX003 (ip), vehicle: Klucel (hydroxypropylcellulose) (HPC)) was 81 % of control; the T/C (dose: 100.0 micrograms/kg/injection, schedule: Q04DX003 (ip), vehicle: Klucel (hydroxypropylcellulose) (HPC)) was 120 % of control; the T/C (dose: 200.0 micrograms/kg/injection, schedule: Q04DX003 (ip), vehicle: Klucel (hydroxypropylcellulose) (HPC)) was 97 % of control. For the same molecule, the T/C was 89 % of control (dose: 400.0 micrograms/kg/injection, schedule: Q04DX003 (ip), vehicle: Klucel (hydroxypropylcellulose) (HPC)) and 121 % of control (dose: 800.0 micrograms/kg/injection, schedule: Q04DX003 (ip), vehicle: Klucel (hydroxypropylcellulose) (HPC)).
Regarding `O=C(NO)c1ccccc1`, the T/C by setting is: (dose: 100.0 mg/kg/injection, schedule: Q01DX010 (sc), vehicle: Klucel (hydroxypropylcellulose) (HPC)) 89 % of control; (dose: 200.0 mg/kg/injection, schedule: Q01DX010 (sc), vehicle: Klucel (hydroxypropylcellulose) (HPC)) 61 % of control; (dose: 400.0 mg/kg/injection, schedule: Q01DX010 (sc), vehicle: Klucel (hydroxypropylcellulose) (HPC)) 21 % of control.
Regarding `COc1c2c(c(O)c3c4c(c(C)cc13)C1OC3(C(OC)OC5CC(C)(O)C(OC6CC(C)(O)C(O)C(C)O6)C(C)O5)OC1C(OC)(O4)C31CO1)C(=O)C(O)CC2OC1CC(C)(O)C(OC(C)=O)C(C)O1` (centres undefined), the T/C was 61 % of control (dose: 0.06 mg/kg/injection, schedule: Q04DX003 (ip), vehicle: saline) and 45 % of control (dose: 0.5 mg/kg/injection, schedule: Q04DX003 (ip), vehicle: saline).
Take `COC(=O)Nc1nc2ccc(C3(c4ccc(F)cc4)OCCO3)cc2[nH]1`: the T/C (dose: 600.0 mg/kg/injection, schedule: Q04DX003 (sc), vehicle: saline with Tween-80) was 190 % of control.
With `CNc1n[n+](-c2ccccc2)no1`, the T/C (dose: 18.25 mg/kg/injection, schedule: Q04DX003 (sc), vehicle: water) is 88 % of control; the T/C (dose: 37.5 mg/kg/injection, schedule: Q04DX003 (sc), vehicle: water) was 81 % of control; the T/C (dose: 75.0 mg/kg/injection, schedule: Q04DX003 (sc), vehicle: water) was 91 % of control.
For `[NH-]C(CCC(N)=O)C(=O)O.[NH-]C(CCC(N)=O)C(=O)O.[Zn+2]` (centres undefined), the T/C (dose: 75.0 mg/kg/injection, schedule: Q04DX003 (ip), vehicle: saline with Tween-80) is 97 % of control.
As for `Nc1ccc(Cn2ccc3c4c(N)nc(N)nc4ccc32)cc1`, the T/C is, setting by setting: (dose: 18.75 mg/kg/injection, schedule: Q04DX003 (sc), vehicle: saline with Tween-80) 80 % of control; (dose: 37.5 mg/kg/injection, schedule: Q04DX003 (sc), vehicle: saline with Tween-80) 75 % of control.
`CS(C)(O)NC(N)=O`: the T/C is, setting by setting: (dose: 150.0 mg/kg/injection, schedule: Q04DX003 (ip), vehicle: water) 119 % of control; (dose: 300.0 mg/kg/injection, schedule: Q04DX003 (ip), vehicle: water) 154 % of control; (dose: 600.0 mg/kg/injection, schedule: Q04DX003 (ip), vehicle: water) 110 % of control; (dose: 1200.0 mg/kg/injection, schedule: Q04DX003 (ip), vehicle: water) 74 % of control.
As for `O=C1CN(c2ccccc2)C(=O)C1C(=O)Nc1ccc(Cl)c(Cl)c1` (centres undefined), the T/C by setting is: (dose: 120.0 mg/kg/injection, schedule: Q04DX003 (ip), vehicle: saline with Tween-80) 70 % of control; (dose: 240.0 mg/kg/injection, schedule: Q04DX003 (ip), vehicle: saline with Tween-80) 32 % of control.
In the case of `COc1ccc2oc3c(ccc[n+]3C)c(=O)c2c1`, where the note is “dose: 200.0 mg/kg/injection, schedule: Q04DX003 (ip), vehicle: saline with Tween-80”, the T/C was 116 % of control.
`COc1cc(C(C)c2cc3c(cc2OCCO)OCO3)cc(OC)c1OC` (centres undefined): the T/C is 69 % of control (dose: 150.0 mg/kg/injection, schedule: Q04DX003 (ip), vehicle: saline); 65 % of control (dose: 300.0 mg/kg/injection, schedule: Q04DX003 (ip), vehicle: saline); 21 % of control (dose: 600.0 mg/kg/injection, schedule: Q04DX003 (ip), vehicle: saline).
In the case of `CCn1c(-c2ccc(OC(C)=O)cc2)c(C)c2cc(OC(C)=O)ccc21`, the T/C is 68 % of control (dose: 150.0 mg/kg/injection, schedule: Q04DX003 (ip), vehicle: Klucel (hydroxypropylcellulose) (HPC)); 61 % of control (dose: 300.0 mg/kg/injection, schedule: Q04DX003 (ip), vehicle: Klucel (hydroxypropylcellulose) (HPC)); 63 % of control (dose: 600.0 mg/kg/injection, schedule: Q04DX003 (ip), vehicle: Klucel (hydroxypropylcellulose) (HPC)); 47 % of control (dose: 1200.0 mg/kg/injection, schedule: Q04DX003 (ip), vehicle: Klucel (hydroxypropylcellulose) (HPC)).
On to `CC(=O)C(=O)O.CC(=O)C(=O)O.[NH-]C1CCCCC1[NH-].[Pt+2]` (centres undefined), for which the T/C is 72 % of control (dose: 12.5 mg/kg/injection, schedule: Q04DX003 (sc), vehicle: other); 17 % of control (dose: 25.0 mg/kg/injection, schedule: Q04DX003 (sc), vehicle: other); -78 % of control (dose: 50.0 mg/kg/injection, schedule: Q04DX003 (sc), vehicle: other).
`O=C1C=C(N2CC2)C(=O)C(N2CC2)=C1N1CC1`: the T/C runs as follows: (dose: 25.0 micrograms/kg/injection, schedule: Q04DX003 (ip), vehicle: saline) 4 % of control; (dose: 400.0 micrograms/kg/injection, schedule: Q04DX003 (ip), vehicle: saline) -100 % of control.
Regarding `O=S(=O)(O)C1=CC(=N\Cl)/C=CC/1=N/Cl`, the T/C under setting [1] was 89 % of control.
For `Nc1ccc(S(=O)(=O)Nc2cnc3c(Cl)cccc3n2)cc1`, the T/C runs as follows: (dose: 150.0 mg/kg/injection, schedule: Q04DX003 (ip), vehicle: DMSO) 103 % of control; (dose: 300.0 mg/kg/injection, schedule: Q04DX003 (ip), vehicle: DMSO) 49 % of control; (dose: 600.0 mg/kg/injection, schedule: Q04DX003 (ip), vehicle: DMSO) 75 % of control.
As to `COC12[C@@H]3N[C@@H]3CN1C1=C(C(=O)C(NCCSSCCNC3=C(C)C(=O)C4=C(C3=O)C(COC(N)=O)[C@]3(OC)C5N[C@@H]5CN43)=C(C)C1=O)[C@@H]2COC(N)=O` (some centres undefined), the T/C is 24 % of control (dose: 3.12 mg/kg/injection, schedule: Q04DX003 (ip), vehicle: DMSO) and -41 % of control (dose: 6.25 mg/kg/injection, schedule: Q04DX003 (ip), vehicle: DMSO).
With `O=C1c2ccccc2C(Cl)(c2ccc(Cl)cc2)c2ccc(Cl)cc21` (centres undefined), the T/C was 53 % of control under setting [1]; 60 % of control (dose: 300.0 mg/kg/injection, schedule: Q04DX003 (ip), vehicle: saline with Tween-80); 48 % of control (dose: 600.0 mg/kg/injection, schedule: Q04DX003 (ip), vehicle: saline with Tween-80); 30 % of control (dose: 1200.0 mg/kg/injection, schedule: Q04DX003 (ip), vehicle: saline with Tween-80).
For `CC(=O)O[C@H]1C(=O)[C@@]2(C)C(C(OC(=O)c3ccccc3)[C@]3(O)C[C@H](OC(=O)C(OC(=O)CCCC(=O)NCCCN(C)C)C(NC(=O)c4ccccc4)c4ccccc4)C(C)=C1C3(C)C)C1(OC(C)=O)COC1C[C@@H]2O` (some centres undefined), the T/C is, setting by setting: (dose: 2.5 mg/kg/injection, schedule: Q01DX009 (ip), vehicle: water) 22 % of control; (dose: 5.0 mg/kg/injection, schedule: Q01DX009 (ip), vehicle: water) 1 % of control; (dose: 10.0 mg/kg/injection, schedule: Q01DX009 (ip), vehicle: water) 1 % of control; (dose: 20.0 mg/kg/injection, schedule: Q01DX009 (ip), vehicle: water) -100 % of control; (dose: 40.0 mg/kg/injection, schedule: Q01DX009 (ip), vehicle: water) -100 % of control.

The record behind these values is PubChem BioAssay AID298 (DTP/NCI, 2004).
